Experimental data: patent publication EP0470144B1, “BETA-HYDROXAMATE D-ASPARTIC ACID FOR TREATMENT OF VIRAL INFECTIONS AND TUMOURS” (priority 1989, dated 1990)
Values joined by “and” are separate entries in the source; they are usually repeats but may differ in a detail not shown here. Equal values may be shown once.

Legend:
[1] = Acute parenteral toxicity in mice (lethal doses); type: in vivo, souris B6D2F1; conditions: evaluated at 24 hours and 14 days
Source text: La toxicité du DAH par voie parentérale a été évaluée chez la souris B6D2F1 âgée de six semaines et pesant entre 20 et 22 g. Pour chaque niveau de dose, on a utilisé treize mâles et treize femelles avec une période d'observation de 14 jours. La dose léthale (DL) a été évaluée 24 heures après l'injection de DAH puis à 14 jours. Dans ces conditions, on a pu montrer que la DL 10 (10 % de mortalité) était observée pour des posologies de 8,5-9 g/kg, la DL 50 correspondait à 11-12 g/kg et la DL 90 à 14-15 g/kg. Il n'a pas été observé de différence significative de mortalité à 24 heures et à 14 jours pour un niveau de dose donné.

leucémie L1210 = experiment: Antitumour activity in the L1210 leukaemia model, survival; type: in vivo, souris B6D2F1/J; conditions: for Nombre d'animaux survivants: at 30 days
Source text: L'activité antitumorale du DAH et du LAH a été étudiée sur le modèle de leucémie L1210. Les cellules leucémiques L1210 sont maintenues par passages intrapéritonéaux dans la souris B6D2F1/J mâle. […] La durée d'observation est de 30 jours.

[2] = Toxicity in dogs (NCI recommendations), intravenous administration; type: in vivo, chiens Beagle
Source text: En suivant les recommandations du National Cancer Institute (NCI), on a déterminé : a) la dose maximale non toxique, b) la dose toxique faible, c) la dose maximale toxique non léthale, d) la dose léthale.
Ces études ont été réalisées sur des chiens Beagle âgés de six à sept mois et pesant 6,5 à 7,5 kg. Pour mettre en évidence les effets toxiques du DAH, on a mesuré des paramètres cliniques, morphologiques, biochimiques et hématologiques.
L'évaluation de la fréquence cardiaque, l'électrocardiogramme, la pression artérielle (mesurée par cathétérisme intra-artériel), et la fréquence respiratoire ont été mesurées chez des chiens anesthésiés par l'alphachloralose.

virus de Friend = experiment: Survival of mice infected with Friend virus; type: in vivo, souris DBA/2
Source text: Dans d'autres essais, le virus a été maintenu par passages successif intrapéritonéaux chez la souris DBA/2. Cet entretien a été fait à partir de la rate de l'animal tous les 21 jours. L'activité du DAH a été évaluée en comparant les durées de survie des animaux à qui est injecté le virus, avec ou sans DAH. Le traitement a commencé trois jours après l'infection virale car on considère qu'il faut ce laps de temps pour qu'il y ait des séquences du virus dans le génome des précurseurs érythroïdes de la souris infectée. Après avoir fait varier le nombre d'injections journalières et la durée du traitement pour une dose donnée, il a été établi que 3 injections de 1g/kg/dose de DAH durant les 10 premiers jours et 2 injections de 1g/kg/dose de DAH pendant les 20 jours suivants, produisent un T/C de 239 %. Les résultats sont rapportés dans le tableau suivant : Tableau 2

[3] = Stability of DAH versus pH and temperature over one month (colorimetric assay of the hydroxamate function); type: physicochemical; conditions: for Pourcentage de dégradation du DAH sur une période de 30 jours: 30 days
Experimental: La fonction hydroxamate du DAH est mise en évidence par un complexe Fe3+-hydroxamate qui donne une coloration rouge-violet, quantifiée par méthode colorimétrique à 550 nm, à l'aide d'un spectrophotomètre de type Beckman DU 70.
La stabilité du DAH en fonction du pH et de la température a été déterminée sur une durée d'un mois par dosage colorimétrique spécifique de la fonction hydroxamate. Les résultats du tableau ci-après montrent que dans l'eau le DAH est stable jusqu'à une température de 50°C. Une dégradation significative du produit n'est constatée que dans des conditions extrêmes de pH, comme l'illustre le Tableau 1 ci-après. Tableau 1

lymphome L5178Y = experiment: Antitumour activity in the L5178Y lymphoma model, survival; type: in vivo; conditions: days 1,2,3,4,5; for Nombre d'animaux survivants: at 120 days
Source text: L'activité antitumorale du DAH a été aussi étudiée sur deux autres modèles murins : le lymphome L5178Y et la leucémie P388.
Les cellules de lymphome murin (L5178Y) sont maintenues par passages intrapéritonéaux successifs chez la souris DBA/2 et injectées, pour les essais, à la dose de […] par souris.

N[C@@H](CC(=O)NO)C(=O)O [DAH, D-acide aspartique β-hydroxamate]
DL 10 (10 % de mortalité) [1]: 8,5-9 g/kg and 8,5 g/kg
DL 50 [1]: 11 to 12 g/kg
DL 90 [1]: 14 to 15 g/kg
T/Cx100 (leucémie L1210; 0,5 g/kg x4/j, days 1,2,3): 113%
Nombre d'animaux survivants (leucémie L1210; 0,5 g/kg x4/j, days 1,2,3): 0/5
T/Cx100 (leucémie L1210; 1,5 g/kg x4/j, days 1,2,3): 276%
T/Cx100 (leucémie L1210; 1,5 g/kg x4/j, days 1,2,3,4): 347%
Nombre d'animaux survivants (leucémie L1210; 1,5 g/kg x4/j, days 1,2,3,4): 3/5
Nombre d'animaux survivants (leucémie L1210; 1,5 g/kg x4/j, days 1,2,3): 0/5
T/Cx100 (leucémie L1210; 1 g/kg x3/j, days 1-10): 347%
Nombre d'animaux survivants (leucémie L1210; 1 g/kg x3/j, days 1-10): 3/5
T/Cx100 (leucémie L1210; 1 g/kg x4/j, days 1,2,3): 171%
Nombre d'animaux survivants (leucémie L1210; 1 g/kg x4/j, days 1,2,3): 0/5
survie des animaux traités (leucémie L1210; 1 g/kg, 4 times a day for 3 days): prolongation très significative de la survie
activité antitumorale (leucémie L1210; dose of 1 g/kg or more, 3 or 4 times a day): activité antitumorale significative
nadir plaquettes ([2]; 5 g/kg, 8th day after injection, return to pre-treatment level seven to ten days later): 39 x 109 plaquettes/l
nadir plaquettes ([2]; 9 g/kg, twenty-two days after injection): 17 x 109 plaquettes/l
récupération partielle (plaquettes) ([2]; 9 g/kg, two months later): 56 x 10⁹/l
fréquence cardiaque, électrocardiogramme, pression artérielle, fréquence respiratoire ([2]; anaesthetised dogs, intravenous 1 to 5 g/kg): aucune modification
dose maximale non toxique ([2]; dog, in vivo): 2,5-3 g/kg
dose toxique faible ([2]; dog, in vivo): 5000 mg/kg
dose toxique maximale non léthale ([2]; dog, in vivo): ~9000 mg/kg
toxicité de la fonction rénale ou hépatique ([2]; doses up to 9 g/kg): Aucune toxicité
toxicité sur les lignées granulo-monocytaires et érythrocytaires ([2]; including high doses (9 g/kg)): Aucune toxicité
dose à partir de laquelle une toxicité sur la lignée plaquettaire a été constatée ([2]; intravenous): ≥ 5000 mg/kg
Effets toxiques d'apparition immédiate ([2]; intravenous 1 to 10 g/kg (10 % solution), during administration, with anorexia up to 24 hours): vomissements
tolérance à l'administration réitérée ([2]; intravenous, two weeks, five weekly injections of 1 g/kg): aucun signe d'intolérance autre que des vomissements
complication rénale ([2]; one dog, dose of more than 10 g/kg, avoided later by prehydration): précipitation des cristaux de DAH dans les tubules rénaux
Nombre d'animaux survivants (virus de Friend; 1 g/kg x 3/j J 1-10 then x 2/j J 11-30): 5/10
T/Cx100 (virus de Friend; 1 g/kg x 3/j J 1-10 then x 2/j J 11-30, T/C = survival time treated/controls): 239,86%
Nombre d'animaux survivants (virus de Friend; 1 g/kg x 3/j, J 1-10): 0/10
T/Cx100 (virus de Friend; 1 g/kg x 3/j, J 1-10): 193%
Pourcentage de dégradation du DAH sur une période de 30 jours ([3]; HCl 0,1 N, + 4 °C): 42%
Pourcentage de dégradation du DAH sur une période de 30 jours ([3]; HCl 0,1 N, + 25 °C): 78%
Pourcentage de dégradation du DAH sur une période de 30 jours ([3]; HCl 0,1 N, + 50 °C): 100%
Pourcentage de dégradation du DAH sur une période de 30 jours ([3]; H₂O, + 4 °C): 0%
Pourcentage de dégradation du DAH sur une période de 30 jours ([3]; H₂O, + 25 °C): 0%
Pourcentage de dégradation du DAH sur une période de 30 jours ([3]; H₂O, + 50 °C): 0%
Pourcentage de dégradation du DAH sur une période de 30 jours ([3]; NaOH 0,1 N, + 4 °C): 4%
Pourcentage de dégradation du DAH sur une période de 30 jours ([3]; NaOH 0,1 N, + 25 °C): 36%
Pourcentage de dégradation du DAH sur une période de 30 jours ([3]; NaOH 0,1 N, + 50 °C): 100%
Stabilité du DAH ([3]; in water, up to 50°C, one month): stable
T/Cx100 (lymphome L5178Y; 1 g/kg x 3/j): 576%
Nombre d'animaux survivants (lymphome L5178Y; 1 g/kg x 3/j): 5/5
T/Cx100 (lymphome L5178Y; 1 g/kg x 4/j): 576%
Nombre d'animaux survivants (lymphome L5178Y; 1 g/kg x 4/j): 5/5
